Biological target: T1, BaF3 TELJAK3 cells (Homo sapiens, UniProt P52333)
T1 construct: fused on or other part: TEL (ETV6) N-terminal part, coding nucleotides 1-487, serves as the oligomerising partner; It is fused through a Sal I site to the JAK3 kinase domain and expressed from pTRE2 in BaF3 cells bearing pTET-off; P41212 (Transcription factor ETV6)
T1 sequence (P52333 1-1124): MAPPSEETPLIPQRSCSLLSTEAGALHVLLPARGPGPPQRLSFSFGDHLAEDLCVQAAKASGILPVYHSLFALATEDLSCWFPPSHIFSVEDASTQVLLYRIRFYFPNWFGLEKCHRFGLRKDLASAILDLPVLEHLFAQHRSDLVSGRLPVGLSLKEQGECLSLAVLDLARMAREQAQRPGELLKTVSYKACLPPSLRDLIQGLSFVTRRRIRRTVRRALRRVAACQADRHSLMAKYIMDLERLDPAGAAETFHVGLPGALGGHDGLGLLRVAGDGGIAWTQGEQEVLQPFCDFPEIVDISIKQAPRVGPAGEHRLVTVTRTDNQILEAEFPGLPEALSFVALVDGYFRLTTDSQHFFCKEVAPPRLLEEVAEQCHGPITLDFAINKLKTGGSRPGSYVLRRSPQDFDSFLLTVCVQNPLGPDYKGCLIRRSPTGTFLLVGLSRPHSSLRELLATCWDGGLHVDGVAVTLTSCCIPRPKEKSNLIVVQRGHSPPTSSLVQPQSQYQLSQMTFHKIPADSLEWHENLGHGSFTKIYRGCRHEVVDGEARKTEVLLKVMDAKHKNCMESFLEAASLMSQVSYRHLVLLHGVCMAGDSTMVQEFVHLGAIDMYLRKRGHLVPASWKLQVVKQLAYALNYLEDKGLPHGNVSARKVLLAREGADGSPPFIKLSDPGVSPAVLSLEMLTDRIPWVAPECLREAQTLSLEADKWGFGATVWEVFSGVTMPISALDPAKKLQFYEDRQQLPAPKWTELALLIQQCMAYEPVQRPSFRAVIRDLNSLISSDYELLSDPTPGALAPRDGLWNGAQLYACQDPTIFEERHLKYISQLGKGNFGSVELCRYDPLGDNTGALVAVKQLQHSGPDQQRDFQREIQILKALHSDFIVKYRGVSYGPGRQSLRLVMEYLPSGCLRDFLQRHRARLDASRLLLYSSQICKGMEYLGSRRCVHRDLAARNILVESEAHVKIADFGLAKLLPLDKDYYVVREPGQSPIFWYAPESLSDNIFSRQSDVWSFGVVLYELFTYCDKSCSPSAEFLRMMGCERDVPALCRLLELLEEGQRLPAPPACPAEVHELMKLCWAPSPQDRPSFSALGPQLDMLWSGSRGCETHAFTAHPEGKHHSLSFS
Assay: Cellular screening, BaF3 TEL:JAK3 cells, Alamar Blue
Format: cell-based
Settings: 40 hr, read-out: BafT_J3 IC50_nM
How it was run: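 BaF3 cells carrying pTET-off and a TEL–JAK3 kinase-domain fusion, selected for growth-factor independence, were grown in DMEM with 10% Tet-approved FBS without WEHI 3B medium. Cells were exposed to compounds for 40 h at 37 °C, 5% CO2. Viability was read with Alamar Blue (4–6 h) at 544 nm.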

Structure (SMILES) | GI50 [nM]
C=CC(=O)Nc1ccc(Sc2nc(Nc3ccc(N4CCC(CO)CC4)cc3)ncc2Br)cc1 [Compound 253, N-(4-(5-bromo-2-(4-(4-(hydroxymethyl)piperidin-1-yl)phenylao)pyrimidin-4-ylthio)phenyl)acrylamide] | < 1000
C=CC(=O)Nc1ccc(Sc2nc(Nc3ccc(OC)c(NS(C)(=O)=O)c3)ncc2C)cc1 [Compound 293, N-(4-(2-(4-methoxy-3-(methylsulfonamido)phenylao)-5-methylpyrimidin-4-ylthio)phenyl)acrylamide] | < 1000

— patent publication US8846704B2, “Thiopyrimidine-based compounds and uses thereof” (YM Biosciences Austraila Pty Ltd, priority 2007, dated 2014)
